Laboratory results from ChEMBL document CHEMBL1142074, “In vitro activities of cloxyquin (5-chloroquinolin-8-ol) against Mycobacterium tuberculosis” (2007).
In brackets after ≈: the same amount, converted by molar mass.

Tests used:
Type in all cases: functional
[1] = system: Mycobacterium tuberculosis; experiment: Antimycobacterial activity against Mycobacterium tuberculosis H37Ra ATCC 25177 by microplate alamar blue assay
[2] = system: Mycobacterium tuberculosis; experiment: Antimycobacterial activity against Mycobacterium tuberculosis isolates from pulmonary tuberculosis patient by microplate alamar blue assay
[3] = system: Mycobacterium tuberculosis; experiment: Antimycobacterial activity against Mycobacterium tuberculosis H37Rv ATCC 27294 by microplate alamar blue assay
[4] = system: Mycobacterium tuberculosis; experiment: Antimycobacterial activity against para-aminosalicylic acid-resistant Mycobacterium tuberculosis H37Rv ATCC 35821 by microplate alamar blue assay

Q: `Oc1c(Br)cc(Br)c2cccnc12` [BROXYQUINOLINE] was tested. Which MIC [1] did it give?
A: The MIC was 6.25 µg/mL (≈ 20.6 µM).

Q: For `Cc1ccc2c(Cl)cc(Cl)c(O)c2n1` [CHLORQUINALDOL], which MIC [1] is on record?
A: Its MIC is 0.38 µg/mL (≈ 1.67 µM).

Q: Which MIC [1] does the source give for `Oc1c(I)cc(Cl)c2cccnc12` [CLIOQUINOL] here?
A: The MIC was 6.25 µg/mL (≈ 20.5 µM).

Q: `Oc1ccc(Cl)c2cccnc12` [CLOXYQUIN] was tested. Which MIC50 [2] did it give?
A: The MIC50 was 0.125 µg/mL (≈ 0.696 µM).

Q: What about the MIC90 [2] of the same compound?
A: The MIC90 was 0.25 µg/mL (≈ 1.39 µM).

Q: What about the MIC [3] of the same compound?
A: Its MIC is 0.125 µg/mL (≈ 0.696 µM).

Q: What about the MIC [1] of the same compound?
A: The MIC was 0.125 µg/mL (≈ 0.696 µM).

Q: And the MIC [4]?
A: Its MIC is 0.125 µg/mL (≈ 0.696 µM).

Q: `Oc1cccc2cccnc12` [OXYQUINOLINE] was tested. Which MIC [1] did it give?
A: The MIC was 0.125 µg/mL (≈ 0.861 µM).
